The test system of test [1] is Mycobacterium tuberculosis variant bovis. The test can be described thus: Antimicrobial activity against Mycobacterium bovis BCG ATCC 35734 cultured in GAST media incubated for 5 days by resazurin microtiter assay. The test is classed as functional. As to conditions: BCG ATCC 35734, 120 h, time 5 day. In general terms: Resazurin is reduced to fluorescent resorufin, in cell work by metabolically active cells.

Test [2] has the same test system. The test can be described thus: Antimicrobial activity against Mycobacterium bovis BCG ATCC 35734 cultured in GAST-Fe media incubated for 5 days by resazurin microtiter assay. It counts as functional. As to conditions: BCG ATCC 35734, 120 h, time 5 day.

Converted amounts (≈) assume the structure as drawn.

Broadly, the MIC90 is the lowest concentration that inhibits either 90% of growth or 90% of the strains tested, depending on the study. `Oc1ccccc1C1=NNC(c2ccc(Cl)cc2)C1` (stereo not drawn): the MIC90 worked out at 8 µg/mL (≈ 29.3 µM) in test [1] and 32 µg/mL (≈ 117 µM) in test [2].

As to `NC(=S)N1N=C(c2ccccc2O)CC1c1ccc(O)cc1` (stereo not drawn), the MIC90 in test [1] worked out at 16 µg/mL (≈ 51.1 µM); in test [2], 32 µg/mL (≈ 102 µM).

`Oc1ccccc1C1=NNC(c2ccc(Br)cc2)C1` (stereo not drawn): the MIC90 in test [1] was determined as 8 µg/mL (≈ 25.2 µM); in test [2], 64 µg/mL (≈ 202 µM).

Take `NC(=S)N1N=C(c2ccccc2O)CC1c1ccccc1` (stereo not drawn): the results for the MIC90 in test [1] and in test [2] were 16 µg/mL (≈ 53.8 µM) and 32 µg/mL (≈ 108 µM), respectively.
